Counter-ions that a name gives are not always drawn.

What all share (assay): Cytotoxicity in vitro in the presence and absence of elastase (MTT assay)
Background: Formazan colour is commonly taken as a measure of viable cells.

The test system of one assay is SUM149. In kind it is cell-based. The conditions noted are these: SUM149 cells, 72 h. How it is done: (§1) Cultivation of cells was performed according to standard procedures with the media recommended by the provider. The cells, in a total volume of 100 μL, were seeded in a 96-well plate with a white bottom (#3610). After a 24 h incubation period at 37° C. and 5% CO2, the medium was exchanged by adding 90 μL fresh medium. The treatment started by adding the test compound in 10 μL of culture medium to the cells in triplicates. Concentrations ranging from 10^−5 M to 10^−13 M were chosen. Two identically treated sets of samples were prepared. One set was treated with the test compound alone, whereas to the second set the compound and 10 nM elastase was added followed by a 72 h incubation period at 37° C. and 5% CO2. The proliferation was detected using the MTT assay (ATCC). At the end of the incubation period the MTT reagent was added to all samples for 4h. Lysis of the cells followed by addition of the detergent was done overnight. The formed dye was detected at 570 nm. The proliferation of untreated but otherwise identically handled cells was define as the […].

The next assay relates to 786-O. It is filed as cell-based, human. The note with it: 786-O cells, 72 h. How it is done:
as §1

For a further assay, the system named is HT29. It is filed as cell-based, human. The note with it: HT29 cells, 72 h. How it is done:
as §1

The next assay relates to NCI H292. In kind it is cell-based, human. The conditions noted are these: NCI H292 cells, 72 h. The procedure:
as §1

For the molecule `CCCNC(=O)Nc1cccc(S(=O)(=O)Nc2cccc([C@@H](CC(=O)O)NC(=O)Nc3ccc(NC(=O)NCCCC[C@H](NC(=O)Nc4ccc(NC(=O)N[C@H](CC(=O)O)c5cccc(NS(=O)(=O)c6cccc(NC(=O)NCCC)c6)c5)cc4)C(=O)NCCOCCOCCOCCC(=O)N[C@@H](CC(=O)O)C(=O)N4CCC[C@H]4C(=O)N[C@H](C(=O)O[C@]4(CC)C(=O)OCc5c4cc4n(c5=O)Cc5c-4nc4ccccc4c5CC)C(C)C)cc3)c2)c1` [Compound A1, Trisodium (4S)-4,11-diethyl-3,14-dioxo-3,4,12,14-tetrahydro-1H-pyrano[3′,4′:6,7]indolizino [1,2-b]quinoline-4-yl 1-[(2S)-15-{[N^2,N^6-bis({4-[({(1R)-2-carboxylato-1-[3-({3-[(propylcarbamoyl)amino]benzene-1-sulfonyl}amino)phenyl]ethyl}carbamoyl)amino]phenyl}carbamoyl)-L-lysyl]amino}-2-(carboxylatomethyl)-4-oxo-7,10,13-trioxa-3-azapentadecanan-1-oyl]-L-prolyl-L-valinate], the half-maximal inhibitory concentration (IC50) (as a rule, the concentration that inhibits the measured activity by half) in the assay on SUM149 (compound alone (no elastase)) was 10 to 100 nM; in the assay with SUM149 (with 10 nM elastase), 0.01 to 0.1 nM; in the assay with 786-O (compound alone (no elastase)), 10 to 100 nM; in the assay on 786-O (with 10 nM elastase), 0.1 to 1 nM; in the assay on HT29 (compound alone (no elastase)) it was > 100 nM; with HT29 (with 10 nM elastase), 0.01 to 0.1 nM. In addition, the IC50 is 10 to 100 nM in the assay on NCI H292 (compound alone (no elastase)) and 0.1 to 1 nM in the assay on NCI H292 (with 10 nM elastase).
As for `CCCNC(=O)Cc1cccc(S(=O)(=O)Nc2cccc([C@@H](CC(=O)O)NC(=O)Nc3ccc(NC(=O)NCCOCCOCCOCCC(=O)N[C@@H](CCCCNC(=O)CCOCCOCCOCCNC(=O)Nc4ccc(NC(=O)N[C@H](CC(=O)O)c5cccc(CS(=O)(=O)c6cccc(NC(=O)NCCC)c6)c5)cc4)C(=O)NCCN(C)CCN(C)CCN(C)CC(=O)N[C@@H](CC(N)=O)C(=O)N4CCC[C@H]4C(=O)N[C@H](C(=O)O[C@]4(CC)C(=O)OCc5c4cc4n(c5=O)Cc5c-4nc4ccccc4c5CC)C(C)C)cc3)c2)c1` [Compound A5], the IC50 in the assay on SUM149 (compound alone (no elastase)) was 1.1 to 10 nM; with SUM149 (with 10 nM elastase), < 0.01 nM; with 786-O (compound alone (no elastase)) it was 10 to 100 nM; in the assay on 786-O (with 10 nM elastase) it was 0.01 to 0.1 nM; in the assay on HT29 (compound alone (no elastase)), 10 to 100 nM; with HT29 (with 10 nM elastase) it was 0.01 to 0.1 nM. In addition, the IC50 with NCI H292 (compound alone (no elastase)) was 1.1 to 10 nM; in the assay on NCI H292 (with 10 nM elastase) it was < 0.01 nM.
As to `CCCNC(=O)Cc1cccc(S(=O)(=O)Nc2cccc([C@H](CC(=O)O)NC(=O)Nc3ccc(NC(=O)NCCOCCOCCOCCC(=O)N[C@@H](CCCCNC(=O)CCOCCOCCOCCNC(=O)Nc4ccc(NC(=O)N[C@@H](CC(=O)O)c5cccc(NS(=O)(=O)c6cccc(NC(=O)NCCC)c6)c5)cc4)C(=O)NCCN(C)CCN(C)CCN(C)CC(=O)N[C@@H](CC(N)=O)C(=O)N4CCC[C@H]4C(=O)N[C@H](C(=O)O[C@]4(CC)C(=O)OCc5c4cc4n(c5=O)Cc5c-4nc4ccccc4c5CC)C(C)C)cc3)c2)c1` [Compound A6], the IC50 lay in the range of 1.1 to 10 nM with SUM149 (compound alone (no elastase)); 0.01 to 0.1 nM with SUM149 (with 10 nM elastase); 10 to 100 nM with 786-O (compound alone (no elastase)); 0.1 to 1 nM in the assay with 786-O (with 10 nM elastase); 10 to 100 nM in the assay with HT29 (compound alone (no elastase)); 0.1 to 1 nM in the assay with HT29 (with 10 nM elastase). Besides, the IC50 fell in the range of 1.1 to 10 nM with NCI H292 (compound alone (no elastase)) and 0.1 to 1 nM in the assay with NCI H292 (with 10 nM elastase).
`CCCNC(=O)Nc1cccc(S(=O)(=O)Nc2cccc([C@@H](CC(=O)O)NC(=O)Nc3ccc(NC(=O)NCCCCN(C)CCN(C)CCN(C)CC(=O)N[C@@H](CCCCNC(=O)CN(C)CCN(C)CCN(C)CCNC(=O)Nc4ccc(NC(=O)N[C@H](CC(=O)O)c5cccc(NS(=O)(=O)c6cccc(NC(=O)NCCC)c6)c5)cc4)C(=O)NCCN(C)CCN(C)CCN(C)CC(=O)N[C@@H](CC(N)=O)C(=O)N4CCC[C@H]4C(=O)N[C@H](C(=O)O[C@]4(CC)C(=O)OCc5c4cc4n(c5=O)Cc5c-4nc4ccccc4c5CC)C(C)C)cc3)c2)c1` [Compound A7]: the IC50 is 1.1 to 10 nM in the assay with SUM149 (compound alone (no elastase)); 0.1 to 1 nM with SUM149 (with 10 nM elastase); 10 to 100 nM in the assay with 786-O (compound alone (no elastase)); 0.1 to 1 nM in the assay with 786-O (with 10 nM elastase); 10 to 100 nM with HT29 (compound alone (no elastase)); 0.1 to 1 nM in the assay on HT29 (with 10 nM elastase). Besides, the IC50 in the assay on NCI H292 (compound alone (no elastase)) lay in the range of 1.1 to 10 nM; in the assay on NCI H292 (with 10 nM elastase), 0.1 to 1 nM.
With `CCCNC(=O)Nc1cccc(S(=O)(=O)Nc2cccc([C@H](CC(=O)O)NC(=O)Nc3ccc(NC(=O)NCCN(C)CCN(C)CCN(C)CC(=O)NCCCC[C@H](NC(=O)CN(C)CCN(C)CCN(C)CCNC(=O)Nc4ccc(NC(=O)N[C@@H](CC(=O)O)c5cccc(NS(=O)(=O)c6cccc(NC(=O)NCCC)c6)c5)cc4)C(=O)NCCN(C)CCN(C)CCN(C)CC(=O)N[C@@H](CC(N)=O)C(=O)N4CCC[C@H]4C(=O)N[C@H](C(=O)O[C@]4(CC)C(=O)OCc5c4cc4n(c5=O)Cc5c-4nc4ccccc4c5CC)C(C)C)cc3)c2)c1` [Compound A8], the IC50 lay in the range of 1.1 to 10 nM in the assay on SUM149 (compound alone (no elastase)); 0.1 to 1 nM in the assay on SUM149 (with 10 nM elastase); 10 to 100 nM with 786-O (compound alone (no elastase)); 0.1 to 1 nM in the assay on 786-O (with 10 nM elastase); 10 to 100 nM in the assay with HT29 (compound alone (no elastase)); 0.1 to 1 nM with HT29 (with 10 nM elastase). Further, the half-inhibitory concentration (IC50) in the assay with NCI H292 (compound alone (no elastase)) was 1.1 to 10 nM; with NCI H292 (with 10 nM elastase) it was 0.1 to 1 nM.
With `CCCNC(=O)Nc1cccc(S(=O)(=O)Nc2cccc([C@@H](CC(=O)O)NC(=O)Nc3ccc(NC(=O)NCCN(C)CCN(C)CCN(C)CC(=O)NCC(=O)N4CCC[C@H]4C(=O)N[C@H](C(=O)O[C@]4(CC)C(=O)OCc5c4cc4n(c5=O)Cc5c-4nc4ccccc4c5CC)C(C)C)cc3)c2)c1` [Compound B2, (4S)-4,11-diethyl-3,14-dioxo-3,4,12,14-tetrahydro-1H-pyrano[3′,4′:6,7]indolizino[1,2-b]quinolin-4-yl N-{2-[{2-[{2-[({4-[({(1R)-2-carboxy-1-[3-({3-[(propylcarbamoyl)amino]benzene-1-sulfonyl}amino)phenyl]ethyl}carbamoyl)amino]phenyl}carbamoyl)amino]ethyl}(methyl)amino]ethyl}(methyl)amino]ethyl}-N-methylglycylglycyl-L-prolyl-L-valinate], the IC50 in the assay on SUM149 (compound alone (no elastase)) was 0.1 to 1 nM; in the assay on SUM149 (with 10 nM elastase), < 0.01 nM; with 786-O (compound alone (no elastase)), 1.1 to 10 nM; with 786-O (with 10 nM elastase) it was < 0.01 nM; with HT29 (compound alone (no elastase)), 10 to 100 nM; in the assay on HT29 (with 10 nM elastase) it was < 0.01 nM. Also, the half-maximal inhibitory concentration (IC50) in the assay with NCI H292 (compound alone (no elastase)) was 1.1 to 10 nM; in the assay on NCI H292 (with 10 nM elastase), < 0.01 nM.
Take `CCCNC(=O)Nc1cccc(S(=O)(=O)Nc2cccc([C@@H](CC(=O)O)NC(=O)Nc3ccc(NC(=O)NCCN(C)CCN(C)CCN(C)CC(=O)N[C@@H](CC(N)=O)C(=O)N4CCC[C@H]4C(=O)N[C@H](C(=O)O[C@]4(CC)C(=O)OCc5c4cc4n(c5=O)Cc5c-4nc4ccccc4c5CC)C(C)C)cc3)c2)c1` [Compound B4, (4S)-4,11-Diethyl-3,14-dioxo-3,4,12,14-tetrahydro-1H-pyrano[3′,4′:6,7]indolizino[1,2-b]quinolin-4-yl N-{2-[{2-[{2-[({4-[({(1R)-2-carboxy-1-[3-({3-[(propylcarbamoyl)amino]benzene-1-sulfonyl}amino)phenyl]ethyl}carbamoyl)amino]phenyl}carbamoyl)amino]ethyl} (methyl)amino]ethyl} I(methyl)amino]ethyl}-N-methylglycyl-L-asparaginyl-L-prolyl-L-valinate]: the IC50 is 1.1 to 10 nM with SUM149 (compound alone (no elastase)); < 0.01 nM in the assay with SUM149 (with 10 nM elastase); 10 to 100 nM with 786-O (compound alone (no elastase)); 0.01 to 0.1 nM with 786-O (with 10 nM elastase); 10 to 100 nM in the assay on HT29 (compound alone (no elastase)); 0.01 to 0.1 nM in the assay with HT29 (with 10 nM elastase). The results for the concentration for half-maximal inhibition (IC50) in the assay on NCI H292 (compound alone (no elastase)) and with NCI H292 (with 10 nM elastase) were 10 to 100 nM and 0.01 to 0.1 nM, respectively.
For `CCCNC(=O)Nc1cccc(S(=O)(=O)Nc2cccc([C@@H](CC(=O)O)NC(=O)Nc3ccc(NC(=O)NCCOCCOCCOCCC(=O)N[C@@H](CC(=O)OCC[N+](C)(C)C)C(=O)N4CCC[C@H]4C(=O)N[C@H](C(=O)O[C@]4(CC)C(=O)OCc5c4cc4n(c5=O)Cc5c-4nc4ccccc4c5CC)C(C)C)cc3)c2)c1` [Compound C1, trifluoroacetate], the half-maximal inhibitory concentration (IC50) with SUM149 (compound alone (no elastase)) fell in the range of 10 to 100 nM; in the assay with SUM149 (with 10 nM elastase), 0.01 to 0.1 nM; with 786-O (compound alone (no elastase)), 10 to 100 nM; in the assay on 786-O (with 10 nM elastase) it was 0.01 to 0.1 nM; with HT29 (compound alone (no elastase)), 10 to 100 nM; in the assay with HT29 (with 10 nM elastase), 0.01 to 0.1 nM. The values for the IC50 with NCI H292 (compound alone (no elastase)) and in the assay on NCI H292 (with 10 nM elastase) were 10 to 100 nM and 0.01 to 0.1 nM, respectively.
Consider `CCCNC(=O)Nc1cccc(S(=O)(=O)Nc2cccc([C@@H](CC(=O)O)N(C(=O)NC(N)=O)c3ccc(NCCCCOC(=O)C[C@H](NC(=O)CCOCCOCCOCCNc4ccc(N(C(=O)NC(N)=O)[C@H](CC(=O)O)c5cccc(NS(=O)(=O)c6cccc(NC(=O)NCCC)c6)c5)cc4)C(=O)N4CCC[C@H]4C(=O)N[C@H](C(=O)O[C@]4(CC)C(=O)OCc5c4cc4n(c5=O)Cc5c-4nc4ccccc4c5CC)C(C)C)cc3)c2)c1` [Compound C4], for which the 50% inhibitory concentration (IC50) was 1.1 to 10 nM in the assay with SUM149 (compound alone (no elastase)); 0.01 to 0.1 nM in the assay on SUM149 (with 10 nM elastase); 10 to 100 nM in the assay with 786-O (compound alone (no elastase)); 0.01 to 0.1 nM in the assay on 786-O (with 10 nM elastase); > 100 nM with HT29 (compound alone (no elastase)); 0.01 to 0.1 nM with HT29 (with 10 nM elastase). Further, the values for the IC50 in the assay with NCI H292 (compound alone (no elastase)) and with NCI H292 (with 10 nM elastase) were 1.1 to 10 nM and 0.01 to 0.1 nM, respectively.

The record behind these values is patent US20240423973A1, “COMPOUNDS, PHARMACEUTICAL COMPOSITIONS, AND METHODS FOR THE TREATMENT, PREVENTION, OR MANAGEMENT OF HYPERPROLIFERATIVE DISORDERS” (VINCERX PHARMA GMBH, priority 2021, published 2024).
